The results in this text go back to US8193356B2, “Heterocycle compound, and production process and application thereof” (Aska Pharmaceutical Co., Ltd., priority 2005, dated 2012).

SMILES strings stand for the structures.

Take `O=c1c2c(Cc3ccc(OC(F)(F)F)cc3)n[nH]c2c2cccnc2n1-c1ccccc1` (hydrate or solvate) [Example 6, 5-Phenyl-3-(4-trifluoromethoxybenzyl)-1H-pyrazolo[4,3-c][1,8]naphthyridin-4(5H)-one]: the melting point lay within 216 to 218 °C.
Under `COc1ccccc1Cc1n[nH]c2c1c(=O)n(-c1cccc(OC(F)(F)F)c1)c1ncccc21` (hydrate or solvate) [Example 31, 3-(2-Methoxybenzyl)-5-(3-trifluoromethoxyphenyl)-1H-pyrazolo[4,3-c][1,8]-naphthyridin-4(5H)-one] stands 243 to 245 °C; under `O=c1c2c(Cc3ccccc3C(F)(F)F)n[nH]c2c2cccnc2n1-c1cccc(OC(F)(F)F)c1` [Example 23, 5-(3-Trifluoromethoxyphenyl)-3-(2-trifluoromethylbenzyl)-1H-pyrazolo[4,3-c][1,8]naphthyridin-4(5H)-one], 252 to 255 °C.
As for `Cc1ccc2c3[nH]nc(Cc4ccccc4)c3c(=O)n(-c3ccccc3)c2n1` (hydrate or solvate) [Example 3, 3-Benzyl-7-methyl-5-phenyl-1H-pyrazolo[4,3-c][1,8]-naphthyridin-4(5H)-one], the melting point lay in the range of 300 to 302 °C.
For `O=c1c2c(Cc3ccc(F)cc3)n[nH]c2c2cccnc2n1-c1cccc(C(F)(F)F)c1` (hydrate or solvate) [Example 38, 3-(4-Fluorobenzyl)-5-(3-trifluoromethylphenyl)-1H-pyrazolo[4,3-c][1,8]-naphthyridin-4(5H)-one], the melting point lay in the range of 243 to 245 °C.
Compound `O=c1c2c(Cc3ccccc3[N+](=O)[O-])n[nH]c2c2cccnc2n1-c1cccc(C(F)(F)F)c1` (hydrate or solvate) [Example 41, 3-(2-Nitrobenzyl)-5-(3-trifluoromethylphenyl)-1H-pyrazolo[4,3-c][1,8]-naphthyridin-4(5H)-one] came in with a melting point of 282 to 284 °C.
Consider `O=c1c2c(Cc3cccs3)n[nH]c2c2cccnc2n1-c1cccc(OC(F)(F)F)c1` [Example 45, 3-(2-Thienylmethyl)-5-(3-trifluoromethoxyphenyl)-1H-pyrazolo[4,3-c][1,8]-naphthyridin-4(5H)-one], for which the melting point was 234 to 238 °C.
For `COc1ccccc1Cc1n[nH]c2c1c(=O)n(-c1cccc(C(F)(F)F)c1)c1ncccc21` (hydrate or solvate) [Example 37, 3-(2-Methoxybenzyl)-5-(3-trifluoromethylphenyl)-1H-pyrazolo[4,3-c][1,8]-naphthyridin-4(5H)-one] the value was 229 to 231 °C.
In turn, `O=c1c2c(Cc3ccccc3)n[nH]c2c2ncccc2n1-c1ccccc1` (hydrate or solvate) [Example 30, 3-Benzyl-5-phenyl-1H-pyrazolo[4,3-c][1,5]naphthyridin-4(5H)-one] showed a melting point of 269 to 272 °C.
`CC(c1ccccc1)c1n[nH]c2c1c(=O)n(-c1cccc(C(F)(F)F)c1)c1ncccc21` (stereo not drawn) [Example 42, 3-(1-Phenylethyl)-5-(3-trifluoromethylphenyl)-1H-pyrazolo[4,3-c][1,8]naphthyridin-4(5H)-one] yielded a melting point of 235 to 237 °C.
The compound `O=c1c2c(Cc3cccc(C(F)(F)F)c3)n[nH]c2c2cccnc2n1-c1ccccc1` [Example 9, 5-Phenyl-3-(3-trifluoromethylbenzyl)-1H-pyrazolo[4,3-c][1,8]naphthyridin-4(5H)-one] returned a melting point of 303 to 305 °C.
In the case of `O=c1c2c(Cc3cccc(OC(F)(F)F)c3)n[nH]c2c2cccnc2n1-c1cccc(C(F)(F)F)c1` [Example 21, 3-(3-Trifluoromethoxybenzyl)-5-(3-trifluoromethylphenyl)-1H-pyrazolo[4,3-c][1,8]naphthyridin-4(5H)-one], the melting point was in the range of 129 to 132 °C.
`O=c1c2c(Cc3cccc(C(F)(F)F)c3)n[nH]c2c2cccnc2n1-c1cccc(OC(F)(F)F)c1` [Example 24, 5-(3-Trifluoromethoxyphenyl)-3-(3-trifluoromethylbenzyl)-1H-pyrazolo[4,3-c][1,8]naphthyridin-4(5H)-one] had a melting point of 206 to 209 °C.
Under `O=c1c2c(Cc3ccccc3OC(F)(F)F)n[nH]c2c2cccnc2n1-c1cccc(C(F)(F)F)c1` [Example 20, 3-(2-Trifluoromethoxybenzyl)-5-(3-trifluoromethylphenyl)-1H-pyrazolo[4,3-c][1,8]naphthyridin-4(5H)-one] stands 247 to 252 °C.
The compound `O=c1c2c(Cc3ccccc3)n[nH]c2c2ccncc2n1-c1ccccc1` [Example 29, 3-Benzyl-5-phenyl-1H-pyrazolo[4,3-c][1,7]naphthyridin-4(5H)-one] registered a melting point of 303 to 307 °C.
For the compound `O=c1c2c(Cc3ccccc3OC(F)(F)F)n[nH]c2c2cccnc2n1-c1ccccc1` (hydrate or solvate) [Example 4, 5-Phenyl-3-(2-trifluoromethoxybenzyl)-1H-pyrazolo[4,3-c][1,8]naphthyridin-4(5H)-one], the melting point was 275 °C (dec.).
Under `O=c1c2c(Cc3ccc(C(F)(F)F)cc3)n[nH]c2c2cccnc2n1-c1cccc(C(F)(F)F)c1` [Example 19, 3-(4-Trifluoromethylbenzyl)-5-(3-trifluoromethylphenyl)-1H-pyrazolo[4,3-c][1,8]naphthyridin-4(5H)-one] stands 145 to 148 °C; under `CCC(c1ccccc1)c1n[nH]c2c1c(=O)n(-c1ccccc1)c1ncccc21` (stereo not drawn) [Example 43, 5-Phenyl-3-(1-phenylpropyl)-1H-pyrazolo[4,3-c][1,8]naphthyridin-4(5H)-one], 233 to 235 °C.
Consider `O=c1c2c(CCC(F)(F)F)n[nH]c2c2cccnc2n1-c1ccccc1` [Example 14, 5-Phenyl-3-(3,3,3-trifluoropropyl)-1H-pyrazolo[4,3-c][1,8]naphthyridin-4(5H)-one], for which the melting point lay within 272 to 274 °C.
In turn, `O=c1c2c(Cc3cccc(C(F)(F)F)c3)n[nH]c2c2cccnc2n1-c1cccc(C(F)(F)F)c1` [Example 18, 3-(3-Trifluoromethylbenzyl)-5-(3-trifluoromethylphenyl)-1H-pyrazolo[4,3-c][1,8]naphthyridin-4(5H)-one] yielded a melting point of 206 to 208 °C.
`O=c1c2c(Cc3ccccc3Cl)n[nH]c2c2cccnc2n1-c1cccc(OC(F)(F)F)c1` (hydrate or solvate) [Example 33, 3-(2-Chlorobenzyl)-5-(3-trifluoromethoxyphenyl)-1H-pyrazolo[4,3-c][1,8]-naphthyridin-4(5H)-one] gave a melting point of 273 to 275 °C.
`O=c1c2c(Cc3ccc(F)cc3)n[nH]c2c2cccnc2n1-c1cccc(OC(F)(F)F)c1` (hydrate or solvate) [Example 32, 3-(4-Fluorobenzyl)-5-(3-trifluoromethoxyphenyl)-1H-pyrazolo[4,3-c][1,8]-naphthyridin-4(5H)-one] yielded a melting point of 226 to 228 °C.
With `CC(c1ccccc1)c1n[nH]c2c1c(=O)n(-c1cccc(OC(F)(F)F)c1)c1ncccc21` (stereo not drawn) [Example 36, 3-(1-Phenylethyl)-5-(3-trifluoromethoxyphenyl)-1H-pyrazolo[4,3-c][1,8]naphthyridin-4(5H)-one], the melting point lay in the range of 183 to 185 °C.
Turning to `O=c1c2c(Cc3cccc(OC(F)(F)F)c3)n[nH]c2c2cccnc2n1-c1ccccc1` (hydrate or solvate) [Example 5, 5-Phenyl-3-(3-trifluoromethoxybenzyl)-1H-pyrazolo[4,3-c][1,8]naphthyridin-4(5H)-one], the melting point lay within 253 to 254 °C.
In turn, `O=c1c2c(CC3CCCCC3)n[nH]c2c2cccnc2n1-c1ccccc1` [Example 13, 3-Cyclohexylmethyl-5-phenyl-1H-pyrazolo[4,3-c][1,8]naphthyridin-4(5H)-one] registered a melting point of 280 to 281 °C.
For `O=c1c2c(Cc3ccccc3)n[nH]c2c2cccnc2n1-c1cccc(C(F)(F)F)c1` (hydrate or solvate) [Example 2, 3-Benzyl-5-(3-trifluoromethylphenyl)-1H-pyrazolo[4,3-c][1,8]-naphthyridin-4(5H)-one] the value was 226 to 228 °C; for `O=c1c2c(Cc3ccccc3OC(F)(F)F)n[nH]c2c2cccnc2n1-c1cccc(OC(F)(F)F)c1` [Example 26, 3-(2-Trifluoromethoxybenzyl)-5-(3-trifluoromethoxyphenyl)-1H-pyrazolo[4,3-c][1,8]naphthyridin-4(5H)-one], 233 to 236 °C; for `O=c1c2c(Cc3ccc(OC(F)(F)F)cc3)n[nH]c2c2cccnc2n1-c1cccc(OC(F)(F)F)c1` [Example 28, 3-(4-Trifluoromethoxybenzyl)-5-(3-trifluoromethoxyphenyl)-1H-pyrazolo[4,3-c][1,8]naphthyridin-4(5H)-one], 129 to 132 °C.
With `Cc1ccccc1Cc1n[nH]c2c1c(=O)n(-c1cccc(C(F)(F)F)c1)c1ncccc21` (hydrate or solvate) [Example 40, 3-(2-Methylbenzyl)-5-(3-trifluoromethylphenyl)-1H-pyrazolo[4,3-c][1,8]-naphthyridin-4(5H)-one], the melting point was 249 to 252 °C.
`Cc1ccccc1Cc1n[nH]c2c1c(=O)n(-c1cccc(OC(F)(F)F)c1)c1ncccc21` (hydrate or solvate) [Example 34, 3-(2-Methylbenzyl)-5-(3-trifluoromethoxyphenyl)-1H-pyrazolo[4,3-c][1,8]-naphthyridin-4(5H)-one] yielded a melting point of 240 to 242 °C.
Take `O=c1c2c(Cc3ccc(C(F)(F)F)cc3)n[nH]c2c2cccnc2n1-c1ccccc1` [Example 7, 5-Phenyl-3-(4-trifluoromethylbenzyl)-1H-pyrazolo[4,3-c][1,8]naphthyridin-4(5H)-one]: the melting point is 216 to 219 °C.
The compound `O=c1c2c(Cc3ccccc3)n[nH]c2c2cnccc2n1-c1ccccc1` [Example 15, 3-Benzyl-5-phenyl-1H-pyrazolo[4,3-c][1,6]naphthyridin-4(5H)-one] came in with a melting point of 284 to 287 °C.
For the compound `O=c1c2c(Cc3ccccc3Cl)n[nH]c2c2cccnc2n1-c1cccc(C(F)(F)F)c1` (hydrate or solvate) [Example 39, 3-(2-Chlorobenzyl)-5-(3-trifluoromethylphenyl)-1H-pyrazolo[4,3-c][1,8]-naphthyridin-4(5H)-one], the melting point was 276 to 278 °C.

The melting point is the temperature, or range, at which the solid turns liquid.
